The source of these data is ChEMBL document CHEMBL1147945, “R-isomers of Arg-Gly-Asp (RGD) mimics as potent alphavbeta3 inhibitors” (Bioorg Med Chem, 2007).

Active and inactive are the calls of the source. The calls are words filed in the database; no cut-off is given here.

Data set [1] has as its target Integrin alpha-V/beta-3 (Homo sapiens, UniProt P05106+P06756). Description: Inhibition of alphaVbeta3 integrin receptor expressed in human 293 cells. It counts as cell-based, HEK293.
Data set [2] concerns the target T1, Integrin alpha-V/beta-6 (Homo sapiens, UniProt P06756+P18564). Description: Inhibition of alpha-V-beta-6 integrin receptor in human 293 cells. The class given is cell-based, HEK293.
Data set [3] can be described thus: Bioavailability in mouse at 20 mg/kg, po. It counts as ADME, organism-based. Particulars: in vivo.
Data set [4] can be described thus: Half life in mouse at 20 mg/kg po or 10 mg/kg iv. It counts as ADME, organism-based. Particulars: in vivo.
Data set [5] deals with T1, Integrin alpha-V/beta-6. Description: Inhibition of alpha-V-beta-6 integrin receptor in human HT29 cells. It counts as cell-based, HT-29.
Data set [6] concerns M21. The data set can be described thus: Inhibition of tumor growth in twice daily ip dosed SCID mouse implanted with human M21 cells after 28 days. It counts as functional, organism-based.
Data set [7] has as its system M21. Description: Decrease in tumor volume in SCID mouse implanted with human M21 cells at 100 mg/kg, ip twice daily after 28 days relative to control. The arrangement: scale not given: the % may be the effect or the level left. The class given is functional. Particulars: route intraperitoneal.
Data set [8] deals with M21. The data set can be described thus: Decrease in tumor weight in SCID mouse implanted with human M21 cells at 100 mg/kg, ip twice daily after 28 days relative to control. It counts as functional. The arrangement: scale not given: the % may be the effect or the level left. Particulars: route intraperitoneal.
For data set [9], the system named is Colon 26. The data set can be described thus: Inhibition of tumor growth in twice daily ip dosed BALB/c mouse implanted with mouse colon 26 tumor cells after 21 days. It counts as functional, organism-based.
Data set [10] has as its system Colon 26. The data set can be described thus: Decrease in tumor volume in BALB/c mouse implanted with mouse colon 26 tumor cells at 100 mg/kg, ip twice daily after 21 days relative to control. The class given is functional. The arrangement: scale not given: the % may be the effect or the level left. Particulars: route intraperitoneal.
For data set [11], the system named is Colon 26. Description: Decrease in tumor weight in BALB/c mouse implanted with colon 26 tumor cells at 100 mg/kg, ip twice daily after 21 days relative to control. The class given is functional. The arrangement: scale not given: the % may be the effect or the level left. Particulars: route intraperitoneal.
In data set [12] the test system is Mus musculus. The data set can be described thus: Decrease in colon 26 tumor-induced hypercalcemia in BALB/c mouse at 100 mg/kg, ip twice daily. The class given is functional. The arrangement: scale not given: the % may be the effect or the level left. Particulars: route intraperitoneal.
A short description of data set [13]: Drug level in BALB/c mouse plasma after 6 hrs at 1 mg/kg, ip. The class given is ADME, organism-based. The arrangement: dose 1 mg/kg, route intraperitoneal. Particulars: read-out: Drug uptake.
Data set [14] is described as follows: Drug level in BALB/c mouse plasma after 6 hrs at 10 mg/kg, ip. The class given is ADME, organism-based. Details: dose 10 mg/kg, route intraperitoneal. Particulars: read-out: Drug uptake.
Data set [15] can be described thus: Drug level in BALB/c mouse plasma after 6 hrs at 100 mg/kg, ip. Particulars: read-out: Drug uptake. The class given is ADME, organism-based. Details: dose 100 mg/kg, route intraperitoneal.

T1 sequence (P06756 31-889 limits assumed): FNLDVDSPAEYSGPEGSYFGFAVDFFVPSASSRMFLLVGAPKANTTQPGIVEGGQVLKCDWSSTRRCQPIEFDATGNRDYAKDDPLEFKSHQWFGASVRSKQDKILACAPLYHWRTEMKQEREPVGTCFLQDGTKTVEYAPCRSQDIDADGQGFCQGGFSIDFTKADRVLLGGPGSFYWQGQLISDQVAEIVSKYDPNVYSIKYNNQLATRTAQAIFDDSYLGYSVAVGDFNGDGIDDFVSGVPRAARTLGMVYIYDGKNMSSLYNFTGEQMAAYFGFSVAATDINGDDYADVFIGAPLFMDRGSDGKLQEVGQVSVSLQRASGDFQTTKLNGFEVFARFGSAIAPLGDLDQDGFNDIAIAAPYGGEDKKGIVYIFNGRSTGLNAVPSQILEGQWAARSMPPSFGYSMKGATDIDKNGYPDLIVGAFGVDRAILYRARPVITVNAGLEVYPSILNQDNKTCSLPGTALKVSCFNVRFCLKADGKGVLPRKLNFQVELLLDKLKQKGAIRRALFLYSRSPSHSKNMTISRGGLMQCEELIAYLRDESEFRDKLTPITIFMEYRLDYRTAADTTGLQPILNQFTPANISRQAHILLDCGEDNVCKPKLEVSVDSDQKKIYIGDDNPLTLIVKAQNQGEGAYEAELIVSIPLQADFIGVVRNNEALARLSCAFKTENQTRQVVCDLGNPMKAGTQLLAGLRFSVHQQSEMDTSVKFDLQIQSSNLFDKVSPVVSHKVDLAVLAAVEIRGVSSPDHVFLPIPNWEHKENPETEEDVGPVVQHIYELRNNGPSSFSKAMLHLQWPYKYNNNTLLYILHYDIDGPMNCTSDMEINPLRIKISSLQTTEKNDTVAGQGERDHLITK
T1 sequence (P06756 891-1048 limits assumed): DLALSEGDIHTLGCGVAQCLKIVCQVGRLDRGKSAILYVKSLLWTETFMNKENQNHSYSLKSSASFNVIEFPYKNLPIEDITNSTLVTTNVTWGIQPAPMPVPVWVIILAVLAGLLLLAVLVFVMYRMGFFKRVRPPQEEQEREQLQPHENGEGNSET
T1 sequence (P18564 22-788 limits assumed): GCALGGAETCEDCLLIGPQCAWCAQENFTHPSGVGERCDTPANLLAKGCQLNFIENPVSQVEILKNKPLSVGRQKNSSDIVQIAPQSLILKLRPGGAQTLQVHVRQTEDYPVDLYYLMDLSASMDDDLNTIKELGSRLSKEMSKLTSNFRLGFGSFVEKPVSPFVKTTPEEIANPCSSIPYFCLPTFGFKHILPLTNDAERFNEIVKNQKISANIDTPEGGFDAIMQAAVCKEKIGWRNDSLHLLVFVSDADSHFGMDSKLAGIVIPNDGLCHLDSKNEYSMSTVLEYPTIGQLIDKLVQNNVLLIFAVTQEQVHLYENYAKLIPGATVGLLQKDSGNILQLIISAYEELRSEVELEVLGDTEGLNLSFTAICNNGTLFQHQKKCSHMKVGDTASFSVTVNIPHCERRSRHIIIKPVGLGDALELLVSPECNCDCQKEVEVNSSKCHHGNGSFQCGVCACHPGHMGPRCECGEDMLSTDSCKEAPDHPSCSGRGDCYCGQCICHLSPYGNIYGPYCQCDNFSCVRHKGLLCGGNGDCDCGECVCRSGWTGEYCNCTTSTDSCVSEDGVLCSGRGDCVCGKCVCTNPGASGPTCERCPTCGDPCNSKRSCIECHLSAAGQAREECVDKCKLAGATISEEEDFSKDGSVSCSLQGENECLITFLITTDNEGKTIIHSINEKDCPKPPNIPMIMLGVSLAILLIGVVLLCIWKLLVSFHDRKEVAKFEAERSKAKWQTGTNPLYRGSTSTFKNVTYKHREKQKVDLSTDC
Integrin alpha-V/beta-3, sequence (P05106 27-788 limits assumed): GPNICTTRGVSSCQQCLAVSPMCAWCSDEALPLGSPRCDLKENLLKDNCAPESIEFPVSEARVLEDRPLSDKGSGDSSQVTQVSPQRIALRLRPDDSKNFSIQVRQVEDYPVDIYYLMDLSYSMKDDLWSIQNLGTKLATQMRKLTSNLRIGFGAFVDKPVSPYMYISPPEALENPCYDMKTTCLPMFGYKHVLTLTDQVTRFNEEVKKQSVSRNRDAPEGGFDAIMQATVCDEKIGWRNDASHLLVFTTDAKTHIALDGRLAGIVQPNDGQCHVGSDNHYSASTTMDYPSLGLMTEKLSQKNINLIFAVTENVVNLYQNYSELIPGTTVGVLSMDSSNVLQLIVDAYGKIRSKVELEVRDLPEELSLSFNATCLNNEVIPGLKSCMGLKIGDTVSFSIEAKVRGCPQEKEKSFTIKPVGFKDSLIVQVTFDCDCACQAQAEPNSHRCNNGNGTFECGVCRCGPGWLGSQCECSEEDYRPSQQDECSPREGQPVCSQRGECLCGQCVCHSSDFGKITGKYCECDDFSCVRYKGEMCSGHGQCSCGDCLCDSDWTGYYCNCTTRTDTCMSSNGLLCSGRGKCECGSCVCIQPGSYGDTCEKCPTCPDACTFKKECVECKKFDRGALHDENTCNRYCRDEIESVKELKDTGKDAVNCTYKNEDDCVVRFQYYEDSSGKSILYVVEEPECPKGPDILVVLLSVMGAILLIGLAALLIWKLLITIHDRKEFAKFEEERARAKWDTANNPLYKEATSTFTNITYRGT
Integrin alpha-V/beta-3, sequence (P06756 31-889 limits assumed): as the sequence (P06756 31-889 limits assumed) above
Integrin alpha-V/beta-3, sequence (P06756 891-1048 limits assumed): as the sequence (P06756 891-1048 limits assumed) above

Turning to `O=C(O)C[C@@H](NC(=O)CNC(=O)c1cc(O)cc(NC2=NCC(O)CN2)c1)c1cc(Cl)cc(Cl)c1O` (stereo not given in full), the IC50 in data set [1] worked out at 3 nM; in data set [2] it was 64 nM.

Consider `O=C(O)C[C@H](NC(=O)CNC(=O)c1cc(O)cc(N=C2NCC(F)CN2)c1)c1cc(Cl)cc(Br)c1O` (stereo not given in full), for which half-maximal inhibition in [1] (IC50) required 0.6 nM. The same compound showed a bioavailability in data set [3] of 13.6%. Also, the half-life in data set [4] is 5.1 h.

In the case of `O=C(O)C[C@@H](NC(=O)CNC(=O)c1cncc(NC2=NCC(O)CN2)c1)c1cc(Cl)cc(I)c1O` (stereo not given in full), the figures for the IC50 in data set [1] and in data set [2] were 1 nM and 622 nM, respectively.

On to `O=C(O)C[C@@H](NC(=O)CNC(=O)c1cc(O)cc(NC2=NCC(F)CN2)c1)c1cc(Cl)cc(Br)c1O` (stereo not given in full), for which the IC50 was determined as 1 nM in data set [1] and 366 nM in data set [5]. Besides, the bioavailability in [3] turned out to be 5.9%. Further, in data set [4], the half-life is 2 h. Moreover, the Activity entry was “Dose-dependent effect” in data set [6]; 62% in [7]; 53% in data set [8]; 60% in [10]; 55% in data set [11]; 64% in data set [12]. In data set [9], the result was Active. Moreover, the concentration at 6 h was 3300 ng/mL in [13], 19400 ng/mL in data set [14] and 84400 ng/mL in data set [15].

In the case of `O=C(O)C[C@@H](NC(=O)CNC(=O)c1cc(O)cc(NC2=NCC(F)CN2)c1)c1cc(Cl)cc(I)c1O` (stereo not given in full), the IC50 in [1] was found to be 3 nM; in data set [2], 164 nM.

For `O=C(O)C[C@@H](NC(=O)CNC(=O)c1cc(O)cc(NC2=NCC(O)CN2)c1)c1cc(Cl)cc(Br)c1O` (stereo not given in full), the IC50 in data set [1] amounted to 3 nM; in data set [2] it was 52 nM.
